Source: patent EP0183129A1, “Quinolonecarboxylic acid derivatives” (KYORIN PHARMACEUTICAL CO., LTD., priority 1984, dated 1986)
Values after ≈ are worked out from the molar mass of the structure shown. Where two headings read alike, the source gives them in different places.

Columns and labels:
[1] = test system: Serratia marcescens IID 618; assay: In vitro antibacterial activity, MIC (standard strain); format: cell-based; conditions: Serratia marcescens, IID618, Serratia marcescens IID 618; 10^6 cells/ml; standard strain; read-out: MIC
S. agalactiae 4049 = assay: In vitro antibacterial activity, MIC (clinical isolates); format: cell-based; conditions: Streptococcus agalactiae; S. agalactiae 4049; 10^6 cells/ml; clinical isolate; read-out: MIC
[2] = test system: S. aureus IID 670 (Terajima); assay: In vitro antibacterial activity, MIC (standard strain); format: cell-based, Staphylococcus aureus; conditions: Staphylococcus aureus
[3] = test system: Morganella morganii IID 602; assay: as above; format: cell-based; conditions: IID602; Morganella morganii IID 602; 10^6 cells/ml; standard strain; read-out: MIC
B. fragilis 0558 = assay: as above; format: cell-based, Bacteroides fragilis; conditions: Bacteroides fragilis, 0558, B. fragilis 0558; 10^6 cells/ml; standard strain; read-out: MIC
Shigella sonnei IID 969 = assay: as above; format: cell-based; conditions: IID969, 10^6 cells/ml
Protocol: Experiment-1 In vitro antibacterial activity
The in vitro antibacterial activity against gram-positive and gram-negative bacteria has been investivated.
The minimum inhibitory concentration (MIC) was determined in accordance with the method recommended by Japan Society of Chemotherapy.

[4] = test system: Proteus vulgaris IFO 3167; assay: as above; format: cell-based; conditions: IFO3167
C. difficile I-E = assay: as above; format: cell-based; conditions: Clostridioides difficile; C. difficile I-E; 10^6 cells/ml; standard strain; read-out: MIC
C. ramosum = assay: as above; format: cell-based; conditions: Thomasclavelia ramosa; C. ramosum; 10^6 cells/ml; standard strain; read-out: MIC
[5] = test system: Escherichia coli NIHJ JC-2; assay: as above; format: cell-based; conditions: Escherichia coli, NIHJJC2, Escherichia coli NIHJ JC-2; 10^6 cells/ml; standard strain; read-out: MIC
S. pyogenes IID 692 = assay: as above; format: cell-based; conditions: Streptococcus pyogenes, IID692; S. pyogenes IID 692; 10^6 cells/ml; standard strain; read-out: MIC
S. pyogenes 3107 = assay: In vitro antibacterial activity, MIC (clinical isolates); format: cell-based; conditions: Streptococcus pyogenes; S. pyogenes 3107; 10^6 cells/ml; clinical isolate; read-out: MIC
[6] = test system: Citrobacter freundii IID 976; assay: In vitro antibacterial activity, MIC (standard strain); format: cell-based; conditions: IID976; Citrobacter freundii IID 976; 10^6 cells/ml; standard strain; read-out: MIC
S. faecalis 214 = assay: In vitro antibacterial activity, MIC (clinical isolates); format: cell-based; conditions: Enterococcus faecalis; S. faecalis 214; 10^6 cells/ml; clinical isolate; read-out: MIC
[7] = test system: Alcaligenes faecalis 0104002; assay: In vitro antibacterial activity, MIC (standard strain); format: cell-based; conditions: Alcaligenes faecalis, 0104002, Alcaligenes faecalis 0104002; 10^6 cells/ml; standard strain; read-out: MIC
S. pyogenes 4340 = assay: In vitro antibacterial activity, MIC (clinical isolates); format: cell-based; conditions: Streptococcus pyogenes; S. pyogenes 4340; 10^6 cells/ml; clinical isolate; read-out: MIC
P. aeruginosa IFO 12689 = assay: In vitro antibacterial activity, MIC (standard strain); format: cell-based, Pseudomonas aeruginosa; conditions: Pseudomonas aeruginosa, IFO12689; P. aeruginosa IFO 12689; 10^6 cells/ml; standard strain; read-out: MIC
P. mirabilis IID 994 = assay: as above; format: cell-based; conditions: Proteus mirabilis, IID994
S. pneumoniae 2950 = assay: In vitro antibacterial activity, MIC (clinical isolates); format: cell-based; conditions: Streptococcus pneumoniae; S. pneumoniae 2950; 10^6 cells/ml; clinical isolate; read-out: MIC
S. faecalis 401 = assay: as above; format: cell-based; conditions: Enterococcus faecalis; S. faecalis 401; 10^6 cells/ml; clinical isolate; read-out: MIC
[8] = test system: Pseudomonas aeruginosa V-1; assay: In vitro antibacterial activity, MIC (standard strain); format: cell-based; conditions: V1; Pseudomonas aeruginosa V-1; 10^6 cells/ml; standard strain; read-out: MIC
S. agalactiae 4368 = assay: In vitro antibacterial activity, MIC (clinical isolates); format: cell-based; conditions: Streptococcus agalactiae; S. agalactiae 4368; 10^6 cells/ml; clinical isolate; read-out: MIC
S. pneumoniae 2054 = assay: as above; format: cell-based; conditions: Streptococcus pneumoniae; S. pneumoniae 2054; 10^6 cells/ml; clinical isolate; read-out: MIC
[9] = test system: Bacteroides fragilis GM 7000; assay: In vitro antibacterial activity, MIC (standard strain); format: cell-based; conditions: GM7000; Bacteroides fragilis GM 7000; 10^6 cells/ml; standard strain; read-out: MIC
E. coli ML4707 = assay: In vivo antibacterial activity against systemic infection in mice; set-up: species or system mice (ICR-S); conditions: for ED50: Escherichia coli, ML4707, mice (ICR-S), oral, an hour after intraperitoneal infection, challenge dose 2.7 x 10^6 ~ 8.8 x 10^6 cfu/mouse, read-out: ED50 E. coli ML4707; for activity against gram-negative bacterial infections compared with the reference compounds: systemic infection in mice, result in words
Protocol: Experiment-2 In vivo antibacterial activity against systemic infection in mice (ICR-S)
The infections were produced by intraperitoneal injection of a suspension of the bacterial culture corresponding to the germ studied. The products were administered orally at an hour after the infection.

[10] = IID670, S. aureus IID 670 (Terajima), 10^6 cells/ml, standard strain, read-out: MIC
[11] = Proteus vulgaris IFO 3167, 10^6 cells/ml, standard strain, read-out: MIC
[12] = P. mirabilis IID 994, 10^6 cells/ml, standard strain, read-out: MIC

Row | Structure (SMILES) | MIC [1] [µg/mL] | MIC (S. agalactiae 4049) [µg/mL] | MIC [3] [µg/mL] | MIC (B. fragilis 0558) [µg/mL] | MIC (Shigella sonnei IID 969) [µg/mL] | MIC (C. ramosum) [µg/mL] | MIC [5] [µg/mL] | MIC (S. pyogenes IID 692) [µg/mL] | MIC (S. pyogenes 3107) [µg/mL] | MIC [6] [µg/mL] | MIC (S. faecalis 214) [µg/mL] | MIC [7] [µg/mL] | MIC (S. pyogenes 4340) [µg/mL] | MIC (P. aeruginosa IFO 12689) [µg/mL] | MIC (S. pneumoniae 2950) [µg/mL] | MIC (S. faecalis 401) [µg/mL] | MIC [8] [µg/mL] | MIC (S. agalactiae 4368) [µg/mL] | MIC (S. pneumoniae 2054) [µg/mL] | MIC [9] [µg/mL] | also measured
1 | CCNCC1CCN(c2cc3c(cc2F)c(=O)c(C(=O)O)cn3C2CC2)C1.Cl (centres unmarked) [Example 7, 1-Cyclopropyl-7-(3-ethylaminomethyl-1-pyrrolidinyl)-6-fluoro-1,4-dihydro-4-oxo-3-quinolinecarboxylic acid hydrochloride] | 0.39 | 0.78 | 0.39 | 25 | 0.05 | 6.25 | 0.05 | 0.39 | 0.2 | 0.1 | 0.78 | 1.56 | 0.2 | 3.13 | 0.39 | 0.78 | 1.56 | 0.39 | 0.39 | 25 | MIC [2, 10]: 0.1 µg/mL; MIC [4, 11]: 0.05 µg/mL; MIC (C. difficile I-E): 12.5 µg/mL; MIC (P. mirabilis IID 994; [12]): 0.2 µg/mL
2 | CN(C)CC1CCN(c2c(F)cc3c(=O)c(C(=O)O)cn(C4CC4)c3c2F)C1 (centres unmarked) [Example 21, 1-Cyclopropyl-6,8-difluoro-1,4-dihydro-7-(3-dimethylaminomethyl-1-pyrrolidinyl)-4-oxo-3-quinolinecarboxylic acid] | 0.2 (≈ 0.511 µM) | 0.2 (≈ 0.511 µM) | 0.2 (≈ 0.511 µM) | 0.2 (≈ 0.511 µM) | 0.05 (≈ 0.128 µM) | 0.78 (≈ 1.99 µM) | 0.05 (≈ 0.128 µM) | 0.2 (≈ 0.511 µM) | 0.1 (≈ 0.255 µM) | 0.05 (≈ 0.128 µM) | 0.2 (≈ 0.511 µM) | 0.78 (≈ 1.99 µM) | 0.1 (≈ 0.255 µM) | 3.13 (≈ 8 µM) | 0.1 (≈ 0.255 µM) | 0.2 (≈ 0.511 µM) | 0.39 (≈ 0.996 µM) | 0.2 (≈ 0.511 µM) | 0.2 (≈ 0.511 µM) | 0.39 (≈ 0.996 µM) | MIC [2, 10]: 0.05 µg/mL (≈ 0.128 µM); MIC [4, 11]: 0.05 µg/mL (≈ 0.128 µM); MIC (P. mirabilis IID 994; [12]): 0.1 µg/mL (≈ 0.255 µM); ED50 (E. coli ML4707): 1.2 mg/kg; activity against gram-negative bacterial infections compared with the reference compounds (E. coli ML4707): greater activity against gram-negative bacterial infections than the reference compounds
3 | NCC1CCN(c2c(F)cc3c(=O)c(C(=O)O)cn(C4CC4)c3c2Br)C1 (stereo not drawn) [Example 15, 7-(3-Aminomethyl-l-pyrrolidinyl)-8-bromo-l-cyclopropyl-6-fluoro-1,4-dihydro-4-oxo-3-quinolinecarboxylic acid] | 0.1 (≈ 0.236 µM) | 0.05 (≈ 0.118 µM) | 0.1 (≈ 0.236 µM) | ≤ 0.05 | 0.0125 (≈ 0.0295 µM) | 0.39 (≈ 0.919 µM) | ≤ 0.0063 | 0.05 (≈ 0.118 µM) | 0.05 (≈ 0.118 µM) | 0.025 (≈ 0.0589 µM) | 0.2 (≈ 0.471 µM) | 0.2 (≈ 0.471 µM) | 0.05 (≈ 0.118 µM) | 0.78 (≈ 1.84 µM) | 0.05 (≈ 0.118 µM) | 0.2 (≈ 0.471 µM) | 0.1 (≈ 0.236 µM) | 0.05 (≈ 0.118 µM) | 0.1 (≈ 0.236 µM) | 0.1 (≈ 0.236 µM) | MIC ([2]; IID670): 0.0125 µg/mL (≈ 0.0295 µM); MIC ([4]; Proteus vulgaris): 0.0125 µg/mL (≈ 0.0295 µM); MIC (P. mirabilis IID 994): 0.0125 µg/mL (≈ 0.0295 µM); ED50 (E. coli ML4707): 7.1 mg/kg
4 | CCNCC1CCN(c2c(F)cc3c(=O)c(C(=O)O)cn(C4CC4)c3c2Br)C1 (stereo not drawn) [Example 17, 8-Bromo-l-cyclopropyl-7-(3-ethylaminomethyl-l-pyrrolidinyl)-6-fluoro-1,4-dihydro-4-oxo-3-quinolinecarboxylic acid] | 0.1 (≈ 0.221 µM) | 0.05 (≈ 0.111 µM) | 0.2 (≈ 0.442 µM) | ≤ 0.05 | 0.025 (≈ 0.0553 µM) | 0.39 (≈ 0.862 µM) | 0.0125 (≈ 0.0276 µM) | 0.05 (≈ 0.111 µM) | 0.05 (≈ 0.111 µM) | 0.05 (≈ 0.111 µM) | 0.1 (≈ 0.221 µM) | 0.39 (≈ 0.862 µM) | 0.05 (≈ 0.111 µM) | 3.13 (≈ 6.92 µM) | 0.05 (≈ 0.111 µM) | 0.1 (≈ 0.221 µM) | 0.39 (≈ 0.862 µM) | 0.05 (≈ 0.111 µM) | 0.05 (≈ 0.111 µM) | 0.1 (≈ 0.221 µM) | MIC [2, 10]: 0.025 µg/mL (≈ 0.0553 µM); MIC [4, 11]: 0.025 µg/mL (≈ 0.0553 µM); MIC (P. mirabilis IID 994; [12]): 0.025 µg/mL (≈ 0.0553 µM); ED50 (E. coli ML4707): 0.9 mg/kg; activity against gram-negative bacterial infections compared with the reference compounds (E. coli ML4707): greater activity against gram-negative bacterial infections than the reference compounds
